# Measured values as given in patent publication US6627441B1, “Increasing levels of growth regulator and/or water stress during embryo development” (priority 1998, dated 2003).
# Legend:
# somatic embryos = assay: High intensity water stressing and ABA, inhibition of precocious germination (Example 3); assay type: cell-based, white spruce and Norway spruce
# Description: Somatic embryos were plated on medium containing PEG adjusted to 290 mmol/kg PEG and 16 μM ABA then either transferred to fresh medium of the same composition every two weeks, or transferred every two weeks to medium containing increasing ABA and PEG as outlined in Table 3.
# [1] = system: Western larch somatic embryos; assay: Western larch somatic embryogenesis (Example 10); assay type: cell-based, Western larch (Larix occidentalis Nutt.)
# Description: In order to test the effect of increased ABA and osmoticum, somatic embryos were first cultured on ½ LM full hormone proliferation medium, then transferred to hormone-free preculture medium with 3% sucrose for one week prior to plating 0.75 mL of a 20% (w/v) suspension culture onto filter paper supports overlaying solidified maturation medium. The somatic embryos were plated on PEG medium of 330 mmol/kg and 16 μM ABA, then transferred to 380 mmol/kg PEG medium, 24 ABA after 1 week, then transferred to 450 mmol/kg PEG medium, 32 μM ABA after the third week. These were then either desiccated at week 5 or were transferred to 540 mmol/kg PEG, 40 μM ABA for up to two more weeks before desiccating.
# [2] = system: white spruce somatic embryos; assay: Effect of ABA concentration and PEG medium water potential on maturation frequency and precocious germination (Example 1); assay type: cell-based; details: for mean maturation frequency / precocious germination (appearance of embryos): 6 weeks; for mean maturation frequency: embryos per dish; for total of means (maturation frequency): summed over PEG medium water potentials 230-310
# Description: For maturation, the ½ LM basal medium was supplemented with 250 mg/L glutamine and 500 mg/L casein hydrolysate and 3% sucrose. Amino acids were filter sterilized and added to cooled media. ABA (Sigma A 2784) stock solutions were prepared by first dissolving ABA in concentrated NaOH. ABA was added after autoclaving. The purity and source of (+)-ABA can influence results. Purer (+)-ABA would be required in lower amounts. Actual levels need to be determined depending on the source of ABA, the components of the culture medium, and species being studied. […] It is also possible to complement the maturation medium by incorporating auxin and/or cytokinin, or plant growth promoters having auxin-like and cytokinin-like activity. Similarly, gibberellin is in principle also a suitable complementary growth promoter, and an empirical approach taking into account such factors as plant species, environment, and so forth should be used to determine the concentration etc. of gibberellin.
# For maturation, the solidified culture medium in 9 cm petri dishes was overlaid with a filter paper support to facilitate transfers to fresh media. Onto this was pipetted 0.75 mL of a 20% suspension of precultured cells resuspended in fresh hormone-free preculture medium with 3% sucrose. Cultures were incubated at 25 ° C. in the dark and transferred to fresh medium every two weeks.
# Thus, immature white spruce somatic embryos were cultured on medium containing 8, 16, 24, and 32 μM ABA. […] Embryos were transferred to fresh medium of the same composition and were cultured for a total of six weeks. The number of embryos per dish were then counted and the appearance of the embryos was recorded. Results are for three to eight dishes per treatment. A total of 2439 mature embryos were recorded.
# [3] = system: white spruce somatic embryos; assay: Somatic seedling length after desiccation and germination (Example 8); assay type: cell-based; details: ABA raised to 40 μM and water potential to 400 or 540 mmol/kg with PEG, versus control; two weeks
# Excerpt: In order to desiccate the somatic embryos, they were transferred on their filter paper supports to an empty petri dish. The lid was replaced and left unsealed to prevent contamination while allowing the moisture to escape from the dish. Somatic embryos were desiccated in a sterile chamber in which sterile air at ambient relative humidity (usually 20-60% r.h.) was passed. Similarly, embryos may be desiccated in one or more controlled gaseous environments of relative humidity, ranging from about 5% to 100%. […] Embryos were usually left two weeks to dry. Desiccated embryos can then be stored, preferably frozen, or germinated directly.
# For germination, the somatic embryos upon their filter paper supports were rehydrated on germination medium. This consisted of ½ LM, 2% sucrose, 0.7% agar (Sigma), with no growth regulators, glutamine or casein hydrolysate, in petri dishes or Sigma PHYTATRAYS™. […]
# Somatic embryos were produced following the methods described in Example 4. […] One batch of desiccated spruce embryos produced using these methods was measured and a moisture content of about 7.7 (±0.2)% recorded. […] Two weeks after imbibition, the somatic plantlets were removed from the culture medium and their lengths were measured. Between 53 to 63 somatic plantlets were recorded per treatment.
# [4] = system: white spruce somatic embryos; assay: Varying ABA and PEG during development, precocious germination observations (Example 2); assay type: cell-based; details: 6 weeks
# Description: In order to test the above hypothesis, various concentrations of PEG and ABA were tested and modified during development of white spruce somatic embryos.
# The starting treatments were prepared as outlined in Table 2.
# The embryos were transferred to fresh medium every two weeks over a six week period. Observations were then recorded. The treatments consisted of the following ABA concentrations and media water potentials, with three replicates per treatment.
compound,measurement,setting,value
"CC1=CC(=O)CC(C)(C)[C@@]1(O)/C=C/C(C)=C\C(=O)O [ABA, abscisic acid]",precocious germination,"somatic embryos; maintained on 290 mmol/kg PEG and 16 μM ABA, fresh medium every two weeks, week 10",precociously germinated
same,precocious germination,"somatic embryos; schedule of increasing ABA (16 to 56 μM) and PEG (290 to 650 mmol/kg), biweekly transfer, 10 weeks",no evidence of precocious germination
same,production of mature embryos,[1]; ABA and a mild water stress of 3% sucrose,rarely produced mature embryos
same,plantlets after desiccation and germination,"[1]; PEG 330 to 450 or 540 mmol/kg with ABA 16 to 32 or 40 μM, desiccated and germinated",viable somatic plantlets with root and developing needles
same,precocious germination,"[1]; PEG 330 to 450 or 540 mmol/kg with ABA 16 to 32 or 40 μM, five to seven weeks of culture",inhibited from germinating precociously
same,mean maturation frequency,"[2]; ABA 8 μm, PEG medium water potential 230 (mmol/kg)",29.7
same,mean maturation frequency,"[2]; ABA 8 μm, PEG medium water potential 260 (mmol/kg)",53.0
same,mean maturation frequency,"[2]; ABA 8 μm, PEG medium water potential 290 (mmol/kg)",44.3
same,mean maturation frequency,"[2]; ABA 8 μm, PEG medium water potential 310 (mmol/kg)",10.7
same,precocious germination (appearance of embryos),"[2]; ABA 8 μm, PEG medium water potential 310 (mol/kg)",greening
same,total of means (maturation frequency),[2]; ABA 8 μm,137.7
same,mean maturation frequency,"[2]; ABA 16 μm, PEG medium water potential 230 (mmol/kg)",15.6
same,mean maturation frequency,"[2]; ABA 16 μm, PEG medium water potential 260 (mmol/kg)",44.0
same,precocious germination (appearance of embryos),"[2]; ABA 16 μm, PEG medium water potential 260 (mol/kg)",greening
same,mean maturation frequency,"[2]; ABA 16 μm, PEG medium water potential 290 (mmol/kg)",20.1
same,mean maturation frequency,"[2]; ABA 16 μm, PEG medium water potential 310 (mmol/kg)",0
same,total of means (maturation frequency),[2]; ABA 16 μm,79.7
same,mean maturation frequency,"[2]; ABA 24 μm, PEG medium water potential 230 (mmol/kg)",28.0
same,precocious germination (appearance of embryos),"[2]; ABA 24 μm, PEG medium water potential 230 (mol/kg)",greening
same,mean maturation frequency,"[2]; ABA 24 μm, PEG medium water potential 260 (mmol/kg)",22.8
same,mean maturation frequency,"[2]; ABA 24 μm, PEG medium water potential 290 (mmol/kg)",28.7
same,mean maturation frequency,"[2]; ABA 24 μm, PEG medium water potential 310 (mmol/kg)",1.0
same,total of means (maturation frequency),[2]; ABA 24 μm,80.5
same,mean maturation frequency,"[2]; ABA 32 μm, PEG medium water potential 230 (mmol/kg)",28.0
same,mean maturation frequency,"[2]; ABA 32 μm, PEG medium water potential 260 (mmol/kg)",22.7
same,mean maturation frequency,"[2]; ABA 32 μm, PEG medium water potential 290 (mmol/kg)",8.6
same,mean maturation frequency,"[2]; ABA 32 μm, PEG medium water potential 310 (mmol/kg)",2.5
same,total of means (maturation frequency),[2]; ABA 32 μm,61.8
same,increase in plantlet length,[3],~50%
same,"observations (greening, precocious germination)","[4]; Expt A (start PEG 260 mmol/kg, ABA 16 μM), 1. Control, fresh medium of the same composition","green, cotyledon elongation"
same,"observations (greening, precocious germination)","[4]; Expt A (start PEG 260 mmol/kg, ABA 16 μM), 2. Raise ABA (24, 32 μM)",slight or no greening
same,"observations (greening, precocious germination)","[4]; Expt A (start PEG 260 mmol/kg, ABA 16 μM), 5. Raise PEG (290, 320 mmol/kg), raise ABA (24, 32 μM)",slight or no greening
same,"observations (greening, precocious germination)","[4]; Expt B (start PEG 260 mmol/kg, ABA 24 μM), 1. Control, fresh medium of the same composition",greening
same,"observations (greening, precocious germination)","[4]; Expt B (start PEG 260 mmol/kg, ABA 24 μM), 2. Raise ABA (32, 32 μM)",no greening
same,"observations (greening, precocious germination)","[4]; Expt B (start PEG 260 mmol/kg, ABA 24 μM), 5. Raise PEG (290, 320 mmol/kg), raise ABA (32, 32 μM)",slight or no greening
same,"observations (greening, precocious germination)","[4]; Expt C (start PEG 290 mmol/kg, ABA 8 μM), 2. Raise ABA (16, 24 μM)",greening
same,"observations (greening, precocious germination)","[4]; Expt C (start PEG 290 mmol/kg, ABA 8 μM), Raise PEG (12, 14%), raise ABA (16, 24 μM)",none or slight greening
same,"observations (greening, precocious germination)","[4]; Expt D (start PEG 290 mmol/kg, ABA 16 μM), 2. Raise ABA (24, 32 μM)",no greening
same,"observations (greening, precocious germination)","[4]; Expt D (start PEG 290 mmol/kg, ABA 16 μM), 4. Raise PEG (290, 320), lower ABA (8, 8 μM)",greening
same,"observations (greening, precocious germination)","[4]; Expt D (start PEG 290 mmol/kg, ABA 16 μM), 5. Raise PEG (290, 320), raise ABA (24, 32 μM)",no greening
